One experiment concerns BXPC-3. Briefly: Growth inhibition of human BxPC3 cells. The format is functional.
The test system of the next experiment is DU-145. As to the kind of experiment: Growth inhibition of human DU145 cells. The experiment is classed as functional.
A further experiment deals with KM-20L2. Briefly: Growth inhibition of human KM20L2 cells. The format is functional.
The next experiment concerns P388. As to the kind of experiment: Antiproliferative activity against mouse P388 cells. The experiment is classed as functional. Conditions: read-out: ED50 (the source's name).
The test system of a further experiment is MCF7. As to the kind of experiment: Growth inhibition of human MCF7 cells. The experiment is classed as functional.
The subject of another experiment is SF-268. As to the kind of experiment: Growth inhibition of human SF268 cells. The experiment is classed as functional.
The next experiment deals with NCI-H460. Briefly: Growth inhibition of human NCI-H460 cells. The experiment is classed as functional.
For experiment [1], the system named is Stenotrophomonas maltophilia. As to the kind of experiment: Antibacterial activity against Stenotrophomonas maltophilia ATCC 13637 at 64 ug/ml by broth microdilution assay. The experiment is classed as functional, organism-based.
The test system of the next experiment is Candida albicans. Briefly: Antifungal activity against Candida albicans ATCC 90028 at 64 ug/ml by broth microdilution assay. The format is functional, organism-based. (Broth dilution looks for growth in wells or tubes with falling amounts of substance.)
The test system of experiment [2] is Enterococcus faecalis. Briefly: Antibacterial activity against Enterococcus faecalis ATCC 29212 at 64 ug/ml by broth microdilution assay. The experiment is classed as functional, organism-based.
Another experiment relates to Cryptococcus neoformans. Briefly: Antifungal activity against Cryptococcus neoformans ATCC 90112 at 64 ug/ml by broth microdilution assay. The experiment is classed as functional, organism-based.
For the next experiment, the system named is Escherichia coli. Briefly: Antibacterial activity against Escherichia coli ATCC 25922 at 64 ug/ml by broth microdilution assay. The experiment is classed as functional, organism-based.
For a further experiment, the system named is Streptococcus pneumoniae. As to the kind of experiment: Antibacterial activity against Streptococcus pneumoniae ATCC 6303 at 64 ug/ml by broth microdilution assay. The format is functional, organism-based.
The test system of another experiment is Neisseria gonorrhoeae. As to the kind of experiment: Antibacterial activity against Neisseria gonorrhoeae ATCC 49226 at 64 ug/ml by broth microdilution assay. The format is functional, organism-based.
Another experiment concerns Enterobacter cloacae. Briefly: Antibacterial activity against Enterobacter cloacae ATCC 13047 at 64 ug/ml by broth microdilution assay. The experiment is classed as functional, organism-based.
For another experiment, the system named is Micrococcus luteus. As to the kind of experiment: Antibacterial activity against Micrococcus luteus Presque Isle 456 at 64 ug/ml by broth microdilution assay. The experiment is classed as functional, organism-based.
Another experiment concerns Staphylococcus aureus. As to the kind of experiment: Antibacterial activity against Staphylococcus aureus ATCC 29213 at 64 ug/ml by broth microdilution assay. The experiment is classed as functional, organism-based.
The test system of experiment [3] is Enterococcus faecalis. Briefly: Antibacterial activity against Enterococcus faecalis ATCC 29212 by broth microdilution assay. The experiment is classed as functional.

As usually defined, the GI50 is the concentration at which growth is held to half of that of the control. The term MIC denotes the least concentration at which growth counts as inhibited. A higher MIC goes with a less susceptible organism.

Each structure is given as a SMILES string. ≈ marks a conversion by molar mass, not a printed value. Calls of active or inactive are those of the source. No cut-off for these calls is given here.

Turning to `C[C@@H]1O[C@H](OC/C=C2\CC[C@H]3[C@@H]4CC[C@H]5Cc6nc7c(nc6C[C@]5(C)[C@H]4[C@@H](O)C[C@]23C)C[C@@H]2CC[C@@H]3[C@H]([C@@H](O)C[C@]4(C)/C(=C/CO[C@H]5O[C@@H](C)[C@H](O)[C@@H](O)[C@H]5O)CC[C@@H]34)[C@@]2(C)C7)[C@H](O)[C@H](O)[C@H]1O`, the GI50 in the experiment on BXPC-3 was determined as 1.8 µg/mL (≈ 1.9 µM); in the experiment with DU-145, 2 µg/mL (≈ 2.11 µM); in the experiment with KM-20L2 it was 1.8 µg/mL (≈ 1.9 µM); with MCF7, 1.8 µg/mL (≈ 1.9 µM); in the experiment with SF-268 it was 1.8 µg/mL (≈ 1.9 µM); in the experiment with NCI-H460 it was 1.8 µg/mL (≈ 1.9 µM). Besides, the EC50 with P388 was more than 10 µg/mL.

Regarding `C[C@@H]1O[C@H]2OC(C)(OC/C=C3\CC[C@H]4[C@@H]5CC[C@H]6Cc7nc8c(nc7C[C@]6(C)[C@H]5[C@@H](O)C[C@]34C)C[C@@H]3CC[C@@H]4[C@H]([C@@H](O)C[C@]5(C)/C(=C/COC6(C)O[C@@H]7O[C@@H](C)[C@H](O)[C@@H](O)[C@H]7O6)CC[C@@H]45)[C@@]3(C)C8)O[C@@H]2[C@H](O)[C@H]1O` (stereo partly specified), the result (in [1]; with Candida albicans; in the experiment on Enterococcus faecalis [2]; with Cryptococcus neoformans; in the experiment with Escherichia coli; in the experiment with Streptococcus pneumoniae) was inactive. Besides, the result in the experiment on Neisseria gonorrhoeae, in the experiment on Enterobacter cloacae, with Micrococcus luteus and in the experiment on Staphylococcus aureus was inactive. Moreover, the GI50 in the experiment with BXPC-3 is 2.1 µg/mL (≈ 2.03 µM); with DU-145 it was 3 µg/mL (≈ 2.9 µM); with KM-20L2 it was 3.3 µg/mL (≈ 3.19 µM); in the experiment with MCF7, 2.8 µg/mL (≈ 2.71 µM); in the experiment on SF-268, 3 µg/mL (≈ 2.9 µM); with NCI-H460, 3.8 µg/mL (≈ 3.68 µM). Also, the EC50 with P388 is more than 10 µg/mL.

As to `C=C[C@]1(C)CCC2=C1C[C@H](O)[C@H]1[C@H]2CC[C@H]2Cc3nc4c(nc3C[C@@]21C)C[C@@H]1CC[C@H]2C3=C(C[C@H](O)[C@@H]2[C@@]1(C)C4)[C@](C)(C=C)CC3`, in the experiment with P388, the EC50 is more than 10 µg/mL.

For the compound `CC(=O)O[C@@H]1[C@@H](OC(C)=O)[C@H](C)O[C@@H](OC/C=C2\CC[C@H]3[C@@H]4CCC5=CC(=O)CC[C@]5(C)[C@H]4[C@@H](O)C[C@]23C)[C@@H]1OC(C)=O`, the EC50 in the experiment on P388 was more than 10 µg/mL.

Consider `CC(=O)O[C@@H]1[C@@H](OC(C)=O)[C@H](C)O[C@@H](OC/C=C2\CC[C@H]3[C@@H]4CC[C@H]5Cc6nc7c(nc6C[C@]5(C)[C@H]4[C@@H](O)C[C@]23C)C[C@@H]2CC[C@@H]3[C@H]([C@@H](O)C[C@]4(C)/C(=C/CO[C@H]5O[C@@H](C)[C@H](OC(C)=O)[C@@H](OC(C)=O)[C@H]5OC(C)=O)CC[C@@H]34)[C@@]2(C)C7)[C@@H]1OC(C)=O`, for which the EC50 with P388 is more than 10 µg/mL.

With `C[C@@H]1O[C@@H](OC/C=C2\CC[C@H]3[C@@H]4CCC5=CC(=O)CC[C@]5(C)[C@H]4[C@@H](O)C[C@]23C)[C@H](O)[C@H](O)[C@H]1O`, the EC50 with P388 was more than 100 µg/mL.

For the compound `C[C@]12Cc3nc4c(nc3C[C@@H]1CC[C@@H]1[C@@H]2[C@@H](O)C[C@]2(C)/C(=C/CO)CC[C@@H]12)C[C@@]1(C)[C@@H](CC[C@@H]2[C@@H]1[C@@H](O)C[C@]1(C)/C(=C/CO)CC[C@@H]21)C4`, the result (in [1]; in the experiment on Candida albicans; with Enterococcus faecalis [2]; in the experiment with Cryptococcus neoformans; in the experiment with Escherichia coli; in the experiment with Streptococcus pneumoniae) was inactive. Moreover, the result in the experiment with Neisseria gonorrhoeae, in the experiment with Enterobacter cloacae, with Micrococcus luteus and in the experiment on Staphylococcus aureus was inactive. Also, the GI50 in the experiment on BXPC-3 was determined as 1.3 µg/mL (≈ 1.98 µM); in the experiment on DU-145, 1.8 µg/mL (≈ 2.74 µM); in the experiment on KM-20L2 it was 1.7 µg/mL (≈ 2.59 µM); in the experiment on MCF7, 1.3 µg/mL (≈ 1.98 µM); in the experiment with SF-268, 1.7 µg/mL (≈ 2.59 µM); in the experiment on NCI-H460, 2.2 µg/mL (≈ 3.35 µM). The EC50 in the experiment with P388 is 1.5 µg/mL (≈ 2.28 µM).

Take `CC(=O)O[C@@H]1[C@@H](OC(C)=O)[C@H](C)O[C@H]2OC(C)(OC/C=C3\CC[C@H]4[C@@H]5CC[C@H]6Cc7nc8c(nc7C[C@]6(C)[C@H]5[C@@H](O)C[C@]34C)C[C@@H]3CC[C@@H]4[C@H]([C@@H](O)C[C@]5(C)/C(=C/COC6(C)O[C@@H]7O[C@@H](C)[C@H](OC(C)=O)[C@@H](OC(C)=O)[C@H]7O6)CC[C@@H]45)[C@@]3(C)C8)O[C@@H]21` (stereo partly specified): the EC50 with P388 is more than 10 µg/mL.

Regarding `CC(=O)O[C@@H]1[C@@H](OC(C)=O)[C@H](C)O[C@@H](OC/C=C2\CC[C@H]3[C@@H]4CC[C@H]5Cc6nc7c(nc6C[C@]5(C)[C@H]4[C@@H](O)C[C@]23C)C[C@@H]2CC[C@@H]3[C@H]([C@@H](O)C[C@]4(C)/C(=C/CO[C@@H]5O[C@@H](C)[C@H](OC(C)=O)[C@@H](OC(C)=O)[C@H]5OC(C)=O)CC[C@@H]34)[C@@]2(C)C7)[C@@H]1OC(C)=O`, the EC50 in the experiment on P388 was more than 10 µg/mL.

For `CC(=O)OC/C=C1\CC[C@H]2[C@@H]3CC[C@H]4CC(=O)CC[C@]4(C)[C@H]3[C@@H](O)C[C@]12C`, the EC50 with P388 was found to be 16.6 µg/mL (≈ 44.3 µM).

In the experiment with Enterococcus faecalis [3], `CC(=O)OC/C=C1\CC[C@H]2[C@@H]3CC[C@H]4Cc5nc6c(nc5C[C@]4(C)[C@H]3[C@@H](O)C[C@]12C)C[C@@H]1CC[C@@H]2[C@H]([C@@H](O)C[C@]3(C)/C(=C/COC(C)=O)CC[C@@H]23)[C@@]1(C)C6` yielded an MIC of 32 µg/mL (≈ 43.2 µM). Moreover, in the experiment on P388, the EC50 amounted to 77.2 µg/mL (≈ 104 µM).

As to `CC(=O)OC/C=C1\CC[C@H]2[C@@H]3CC[C@H]4CC(=O)[C@H](N=[N+]=[N-])C[C@]4(C)[C@H]3[C@@H](O)C[C@]12C`, the EC50 in the experiment with P388 was determined as 12 µg/mL (≈ 28.9 µM).

On to `CC(=O)O[C@@H]1[C@@H](OC(C)=O)[C@H](C)O[C@H](OC/C=C2\CC[C@H]3[C@@H]4CC[C@H]5Cc6nc7c(nc6C[C@]5(C)[C@H]4[C@@H](O)C[C@]23C)C[C@@H]2CC[C@@H]3[C@H]([C@@H](O)C[C@]4(C)/C(=C/CO[C@H]5O[C@@H](C)[C@H](OC(C)=O)[C@@H](OC(C)=O)[C@H]5OC(C)=O)CC[C@@H]34)[C@@]2(C)C7)[C@@H]1OC(C)=O`, for which the EC50 in the experiment with P388 is more than 10 µg/mL.

For the compound `CC(=O)O[C@@H]1[C@@H](OC(C)=O)[C@H](C)O[C@H]2OC(C)(OC/C=C3\CC[C@H]4[C@@H]5CCC6=CC(=O)CC[C@]6(C)[C@H]5[C@@H](O)C[C@]34C)O[C@@H]21` (stereo partly specified), in the experiment on P388, the EC50 was found to be 9.5 µg/mL (≈ 15.8 µM).

As to `C[C@@H]1O[C@H]2OC(C)(OC/C=C3\CC[C@H]4[C@@H]5CCC6=CC(=O)CC[C@]6(C)[C@H]5[C@@H](O)C[C@]34C)O[C@@H]2[C@H](O)[C@H]1O` (stereo partly specified), the EC50 in the experiment with P388 turned out to be 5.2 µg/mL (≈ 10 µM).

With `CC(=O)OC/C=C1\CC[C@H]2[C@@H]3CCC4=CC(=O)CC[C@]4(C)[C@H]3[C@@H](O)C[C@]12C`, in the experiment with P388, the EC50 is more than 100 µg/mL.

With `CC(=O)OC/C=C1\CC[C@H]2[C@@H]3CC[C@H]4CC(=O)[C@H](Br)C[C@]4(C)[C@H]3[C@@H](O)C[C@]12C`, the EC50 in the experiment with P388 came out at 6.6 µg/mL (≈ 14.6 µM).
